Laboratory results as given in PubChem BioAssay (NCI).
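The compound was tested at five concentrations on cells cultured in 96-well plates, with a 48-hour exposure period. Here, GI50 denotes the concentration required for 50% inhibition of growth. TGI denotes the concentration required for complete inhibition of growth.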

Tests used:
Test in all cases: NCI tumour cell line growth inhibition, 48 h
[1] = test system: HCT-116 colon
[2] = test system: HCT-15 colon
[3] = test system: HOP-62 NSCLC
[4] = test system: HS 578T breast
[5] = test system: IGROV1 ovarian
[6] = test system: MALME-3M melanoma
[7] = test system: NCI-H460 lung
[8] = test system: SF-295 CNS
[9] = test system: SW-620 colon
[10] = test system: UO-31 renal

Compound | GI50 [1] | TGI [1] | GI50 [2] | TGI [2] | GI50 [3] | TGI [3] | GI50 [4] | TGI [4] | GI50 [5] | TGI [5] | GI50 [6] | TGI [6] | GI50 [7] | TGI [7] | GI50 [8] | TGI [8] | GI50 [9] | TGI [9] | GI50 [10] | TGI [10]
O=C(Nc1ccc(-n2cc(-c3ccncc3)c(-c3ccc(O)c(Cl)c3)n2)cc1)Nc1ccc(Cl)c(C(F)(F)F)c1 | 3.15 µM | 10.8 µM | 2.95 µM | 11.8 µM | 6.56 µM | 27.6 µM | 2.43 µM | 13 µM | 4.42 µM | 30.3 µM | 3.04 µM | 17.1 µM | 3.33 µM | 11.4 µM | 2.99 µM | 14.6 µM | 4.55 µM | 20 µM | 3.01 µM | 16.4 µM
c1ccc(C(NC2=NCCO2)c2ccccc2)cc1 |  | > 10 µM |  | > 10 µM |  | > 10 µM |  | > 10 µM |  | > 10 µM |  | > 10 µM |  | > 10 µM |  | > 10 µM |  | > 10 µM |  | > 10 µM
C/C(=N\NC(=S)N(C)C)c1nc2ncccc2[nH]1 |  | > 100 µM |  | > 100 µM |  | > 100 µM |  | 7.85 µM |  | 70 µM |  | 6.68 µM |  | > 100 µM |  |  |  | > 100 µM |  | 1.89 µM
OCCCNc1ncnc2[nH]ncc12 |  | > 100 µM |  | > 100 µM |  | > 100 µM |  | > 100 µM |  | > 100 µM |  | > 100 µM |  | > 100 µM |  | > 100 µM |  | > 100 µM |  | > 100 µM
C/C(=N\NC(=S)NCCCCNC(=S)N/N=C(\C)c1ccccn1)c1ccccc1 |  | 81.5 µM |  | > 100 µM |  | 6 µM |  | > 100 µM |  | > 28.8 µM |  | > 52.4 µM |  | 4.71 µM |  | > 37.6 µM |  | > 100 µM |  | 13.1 µM
CC(C)C(=O)CC(c1ccc(Cl)cc1)N1N=C(C(C)C)CC1c1ccc(Cl)cc1 (configuration not stated) |  | > 100 µM |  |  |  | > 100 µM |  |  |  | > 100 µM |  | > 100 µM |  | > 100 µM |  | > 31.6 µM |  | > 100 µM |  | > 100 µM
Cc1c(Cl)nc(Cl)nc1Cl |  | 3.95 µM |  | 1.25 µM |  | 9.22 µM |  | 8.31 µM |  | 8.33 µM |  | 2.68 µM |  | 20.1 µM |  | 10.6 µM |  | 4.68 µM |  | 1.18 µM
CCCn1cc2c(SC)nc(SC)nc2n1 |  | > 100 µM |  | > 100 µM |  |  |  |  |  | > 100 µM |  | > 100 µM |  | > 100 µM |  | > 100 µM |  | > 100 µM |  | > 100 µM
Cn1ccc(C(=O)NCCN(CCNC(=O)c2ccn(C)c(=O)c2O)CCNC(=O)c2ccn(C)c(=O)c2O)c(O)c1=O |  |  |  | > 100 µM |  | > 100 µM |  | > 100 µM |  | > 100 µM |  | > 100 µM |  | > 100 µM |  | > 100 µM |  | > 100 µM |  | > 100 µM
CCOC(=O)C(Cc1cn(C(C)=O)c2ccccc12)P(=O)(OCC)OCC (configuration not stated) |  | > 100 µM |  | > 100 µM |  | > 100 µM |  | > 100 µM |  | > 100 µM |  |  |  | > 100 µM |  | > 100 µM |  | > 100 µM |  | > 100 µM
Cc1[nH]c(=O)[nH]c(=O)c1/C=C/C(=O)NC(CO)CS(=O)Cc1ccccc1 (configuration not stated) |  | > 300 µM |  | > 300 µM |  | > 300 µM |  |  |  | > 300 µM |  | > 300 µM |  | > 300 µM |  | > 300 µM |  | > 300 µM |  | > 300 µM
